The values that follow come from patent US20250205344A1, “2,4-DIOXOTETRAHYDROPYRIMIDINYL DERATIVES AS DEGRONS IN PROTACS” (GLAXOSMITHKLINE INTELLECTUAL PROPERTY DEVELOPMENT LIMITED, priority 2022, published 2025).

Where a name gives a salt, the structure may show the parent alone.

This experiment deals with T1, Androgen Receptor (Homo sapiens, UniProt P10275, T878A).
T1 construct: the AR gene was modified, using CRISPR/Cas9 editing, so the expressed AR protein included an 11 amino acid HiBiT tag; endogenous in cells; host or cells: clonal LnCaP-derived line, AR gene edited by CRISPR/Cas9
T1 sequence (P10275 whole entry T878A): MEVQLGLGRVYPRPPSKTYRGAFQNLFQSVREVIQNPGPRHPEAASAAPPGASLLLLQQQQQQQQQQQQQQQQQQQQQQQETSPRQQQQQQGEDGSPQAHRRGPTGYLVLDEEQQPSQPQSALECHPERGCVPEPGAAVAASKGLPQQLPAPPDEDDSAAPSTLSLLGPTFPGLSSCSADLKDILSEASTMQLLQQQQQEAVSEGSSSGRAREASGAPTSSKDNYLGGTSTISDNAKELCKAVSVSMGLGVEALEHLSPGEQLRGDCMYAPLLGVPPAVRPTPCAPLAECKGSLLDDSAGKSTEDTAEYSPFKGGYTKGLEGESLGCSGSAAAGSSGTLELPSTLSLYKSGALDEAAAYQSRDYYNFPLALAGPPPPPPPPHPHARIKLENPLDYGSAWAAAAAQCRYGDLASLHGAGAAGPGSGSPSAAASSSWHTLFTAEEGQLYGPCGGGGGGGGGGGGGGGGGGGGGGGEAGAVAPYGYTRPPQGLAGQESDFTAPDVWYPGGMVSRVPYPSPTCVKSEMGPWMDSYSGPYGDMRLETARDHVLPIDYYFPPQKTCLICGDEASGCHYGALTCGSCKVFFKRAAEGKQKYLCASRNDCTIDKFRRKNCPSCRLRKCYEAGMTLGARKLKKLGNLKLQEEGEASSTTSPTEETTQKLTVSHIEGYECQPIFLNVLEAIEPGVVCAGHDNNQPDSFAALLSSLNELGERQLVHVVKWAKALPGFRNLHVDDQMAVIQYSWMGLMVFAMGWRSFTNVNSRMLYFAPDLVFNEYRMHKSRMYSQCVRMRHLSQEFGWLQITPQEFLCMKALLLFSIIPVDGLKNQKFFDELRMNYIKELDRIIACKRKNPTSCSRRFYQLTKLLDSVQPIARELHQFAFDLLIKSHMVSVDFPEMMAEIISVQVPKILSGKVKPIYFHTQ
T1 sequence (Q96SW2 whole entry partner): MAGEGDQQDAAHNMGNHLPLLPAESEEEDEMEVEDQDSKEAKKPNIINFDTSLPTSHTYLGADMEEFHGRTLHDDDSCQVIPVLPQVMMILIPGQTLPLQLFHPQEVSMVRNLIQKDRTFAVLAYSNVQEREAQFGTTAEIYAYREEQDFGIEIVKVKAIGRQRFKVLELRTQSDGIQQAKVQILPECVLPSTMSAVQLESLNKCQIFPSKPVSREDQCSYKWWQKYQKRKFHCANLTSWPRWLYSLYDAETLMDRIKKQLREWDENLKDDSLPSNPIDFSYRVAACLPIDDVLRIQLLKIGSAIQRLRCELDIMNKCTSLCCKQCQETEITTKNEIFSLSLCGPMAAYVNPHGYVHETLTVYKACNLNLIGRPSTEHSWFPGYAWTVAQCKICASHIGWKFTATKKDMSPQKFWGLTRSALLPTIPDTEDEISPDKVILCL
T1 sequence (Q16531 whole entry partner): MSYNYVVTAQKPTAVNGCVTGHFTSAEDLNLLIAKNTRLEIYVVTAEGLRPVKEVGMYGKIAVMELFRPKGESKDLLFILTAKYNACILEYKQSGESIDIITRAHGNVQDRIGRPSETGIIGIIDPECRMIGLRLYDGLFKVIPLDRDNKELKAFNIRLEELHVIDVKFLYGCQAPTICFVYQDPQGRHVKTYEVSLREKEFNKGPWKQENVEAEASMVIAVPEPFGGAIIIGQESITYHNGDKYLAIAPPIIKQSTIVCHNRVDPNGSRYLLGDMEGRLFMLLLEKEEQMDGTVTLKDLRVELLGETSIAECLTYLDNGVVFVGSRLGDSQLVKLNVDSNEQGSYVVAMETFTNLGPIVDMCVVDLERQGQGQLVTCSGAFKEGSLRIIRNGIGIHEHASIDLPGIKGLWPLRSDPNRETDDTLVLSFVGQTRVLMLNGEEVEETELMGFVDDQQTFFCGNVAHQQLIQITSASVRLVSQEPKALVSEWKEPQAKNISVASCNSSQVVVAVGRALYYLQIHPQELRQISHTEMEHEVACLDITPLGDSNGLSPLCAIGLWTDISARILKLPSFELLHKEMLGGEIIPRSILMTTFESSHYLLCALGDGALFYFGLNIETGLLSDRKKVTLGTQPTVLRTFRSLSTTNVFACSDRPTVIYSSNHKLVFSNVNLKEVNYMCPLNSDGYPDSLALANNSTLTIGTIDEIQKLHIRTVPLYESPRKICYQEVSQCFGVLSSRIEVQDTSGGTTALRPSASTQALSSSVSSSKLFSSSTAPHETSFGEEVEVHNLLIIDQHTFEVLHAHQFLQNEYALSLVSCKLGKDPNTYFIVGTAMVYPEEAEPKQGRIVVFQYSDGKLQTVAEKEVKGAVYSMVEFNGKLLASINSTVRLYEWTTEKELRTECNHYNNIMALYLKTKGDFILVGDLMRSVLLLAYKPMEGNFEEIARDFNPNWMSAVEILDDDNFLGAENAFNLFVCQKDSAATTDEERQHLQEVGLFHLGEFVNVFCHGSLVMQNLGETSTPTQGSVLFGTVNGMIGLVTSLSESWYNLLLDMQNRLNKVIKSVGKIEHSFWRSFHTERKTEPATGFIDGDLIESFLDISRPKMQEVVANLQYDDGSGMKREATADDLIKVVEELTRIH
Nature of the experiment: Androgen Receptor Degradation Assay (Nano-Glo HiBiT). It is filed as cell-based. As to conditions: 18 h, HiBiT-tagged AR in human LnCaP cells; for Dmax: LNCaP, read-out: mean asymptote max. The procedure: Degradation of Androgen Receptor protein in human LnCaP cells treated with PROTACs was quantified using the Nano-Glo® HiBiT Lytic Detection System (Promega) in 384 well assay plate format. A clonal LnCaP derived cell line was first established in which the AR gene was modified, using CRISPR/Cas9 editing, so the expressed AR protein included an 11 amino acid HiBiT tag at its amino-terminus. 10 mM DMSO stock solutions of PROTACs were prepared and diluted across an 11 concentration, 3 fold increment range, and 25 nL dispensed into a white opaque bottomed 384 well assay plate (Thermofisher) using an acoustic ECHO dispenser (Labcyte). […] For the assay, cells were detached from flask and resuspended with assay medium (FluoroBrite™ DMEM supplemented with 10% heat inactivated FBS, penicillin 50 U/mL and streptomycin 50 ug/mL (Thermofisher)). The cell suspension was centrifuged at 400 g for 5 min and the pellet resuspended in assay medium. 25 μL of cell suspension containing 10,000 cells was dispensed into each well of the assay plate containing the test compounds, which was then incubated for 18 h at 37° C./5% CO2. Control wells were included on each assay plate, with assay medium without cells being the no AR remaining 100% effect control, and cells treated with DMSO vehicle only, without PROTAC, the 0% effect control. 25 μL of Nano-Glo® HiBiT lysis buffer supplemented with LgBiT protein and Nano-Glo® substrate (Promega) was added to each well and the plate shaken at 500 rpm for 10 min at room temperature. The intensity of luminescence was measured using a PHERAstar microplate reader (BMG Labtech) and the % AR protein remaining in each well calculated by normalising the raw luminescence value to the above control wells. Parameters corresponding to the potency and efficacy estimates of the PROTACs were obtained from these normalised luminescence values using software (IDBS ActivityBase). These included the DC50 and the Dmax estimates. Two versions of the DC50, called relative DC50 and absolute DC50, were typically generated. These are the inflection point of a fitted 4 parameter sigmoidal response curve and the interpolated concentration of PROTAC corresponding to 50% of the protein being degraded, respectively. The Dmax parameter was the maximum experimentally observed degradation and the asymptote max parameter the fitted response curve asymptote maximum.

Take `N#Cc1ccc(O[C@H]2CC[C@H](NC(=O)c3ccc(N4CCC(CN5CC[C@@H](n6ccc7c(N8CCC(=O)NC8=O)cccc76)C5)CC4)nn3)CC2)cc1Cl` [EAR172, N-((1r,4r)-4-(3-Chloro-4-cyanophenoxy)cyclohexyl)-6-(4-(((S)-3-(4-(2,4-dioxotetrahydropyrimidin-1(2H)-yl)-1H-indol-1-yl)pyrrolidin-1-yl)methyl)piperidin-1-yl)pyridazine-3-carboxamide, hydrochloride]: the Dmax was at least 50%.

Turning to `N#Cc1ccc(O[C@H]2CC[C@H](NC(=O)c3ccc(N4CCCC(N5CCC(n6ccc7c(N8CCC(=O)NC8=O)cccc76)CC5)C4)cc3)CC2)cc1Cl` (stereo partly drawn) [EAR28, N-((1r,4r)-4-(3-Chloro-4-cyanophenoxy)cyclohexyl)-4-(4-(4-(2,4-dioxotetrahydropyrimidin-1(2H)-yl)-1H-indol-1-yl)-[1,3′-bipiperidin]-1′-yl)benzamide], the Dmax is at least 50%.

On to `N#Cc1ccc(O[C@H]2CC[C@H](NC(=O)c3ccc(OCCCN4CCC(n5ccc6c(N7CCC(=O)NC7=O)cccc65)CC4)cn3)CC2)cc1Cl` [EAR62, N-((1r,4r)-4-(3-Chloro-4-cyanophenoxy)cyclohexyl)-5-(3-(4-(4-(2,4-dioxotetrahydropyrimidin-1(2H)-yl)-1H-indol-1-yl)piperidin-1-yl)propoxy)picolinamide], for which the Dmax is at least 50%. For `CC(C)n1ccc2c(N3CCC(=O)NC3=O)cc(C(=O)N3CCCC34CCN(CCCCCCc3ccc(C(=O)N[C@H]5CC[C@H](Oc6ccc(C#N)c(Cl)c6)CC5)cc3)CC4)cc21` [EAR86, N-((1r,4r)-4-(3-Chloro-4-cyanophenoxy)cyclohexyl)-4-(6-(1-(4-(2,4-dioxotetrahydropyrimidin-1(2H)-yl)-1-isopropyl-1H-indole-6-carbonyl)-1,8-diazaspiro[4.5]decan-8-yl)hexyl)benzamide], the Dmax was at least 50%. As to `C[C@@H]1CN(c2ccc(C#N)c(Cl)c2)[C@@H](C)CN1C(=O)Nc1ccc(N2CCC(CN3CCC(n4ccc5c(N6CCC(=O)NC6=O)cccc54)CC3)CC2)nc1` [EAR108, (2R,5S)-4-(3-Chloro-4-cyanophenyl)-N-(6-(4-((4-(4-(2,4-dioxotetrahydropyrimidin-1(2H)-yl)-1H-indol-1-yl)piperidin-1-yl)methyl)piperidin-1-yl)pyridin-3-yl)-2,5-dimethylpiperazine-1-carboxamide], the Dmax was at least 50%. Consider `CC1(C)[C@H](NC(=O)c2ccc(N3CCC(CN4CCC(n5ccc6c(N7CCC(=O)NC7=O)nccc65)CC4)CC3)nc2)C(C)(C)[C@H]1Oc1cnc(C#N)c(Cl)c1` [EAR259, N-((1r,3r)-3-((5-Chloro-6-cyanopyridin-3-yl)oxy)-2,2,4,4-tetramethylcyclobutyl)-6-(4-((4-(4-(2,4-dioxotetrahydropyrimidin-1(2H)-yl)-1H-pyrrolo[3,2-c]pyridin-1-yl)piperidin-1-yl)methyl)piperidin-1-yl)nicotinamide], for which the Dmax is at least 50%. In the case of `N#Cc1ccc(O[C@H]2CC[C@H](NC(=O)c3ccc(CN4CCC(n5ccc6c(N7CCC(=O)NC7=O)cccc65)CC4)cc3)CC2)cc1Cl` [EAR180, N-((1r,4r)-4-(3-Chloro-4-cyanophenoxy)cyclohexyl)-4-((4-(4-(2,4-dioxotetrahydropyrimidin-1(2H)-yl)-1H-indol-1-yl)piperidin-1-yl)methyl)benzamide], the Dmax is at least 50%. The same measure, in the same setting: in the case of `CC1(C)[C@H](NC(=O)c2ccc(N3CCC(CN4CCC(n5ncc6c(N7CCC(=O)NC7=O)nccc65)CC4)CC3)nc2)C(C)(C)[C@H]1Oc1cnc(C#N)c(Cl)c1` [EAR257, N-((1r,3r)-3-((5-Chloro-6-cyanopyridin-3-yl)oxy)-2,2,4,4-tetramethylcyclobutyl)-6-(4-((4-(4-(2,4-dioxotetrahydropyrimidin-1(2H)-yl)-1H-pyrazolo[4,3-c]pyridin-1-yl)piperidin-1-yl)methyl)piperidin-1-yl)nicotinamide] it was at least 50%; in that of `N#Cc1ccc(O[C@H]2CC[C@H](NC(=O)c3cnc(N4CCC(C(=O)N5CCC(n6ccc7c(N8CCC(=O)NC8=O)cccc76)CC5)CC4)nc3)CC2)cc1Cl` [EAR69, N-((1r,4r)-4-(3-Chloro-4-cyanophenoxy)cyclohexyl)-2-(4-(4-(4-(2,4-dioxotetrahydropyrimidin-1(2H)-yl)-1H-indol-1-yl)piperidine-1-carbonyl)piperidin-1-yl)pyrimidine-5-carboxamide], at least 50%.

Regarding `N#Cc1ccc(O[C@H]2CC[C@H](NC(=O)c3ccc(N4C5CCC4CC(CN4CCC(n6ncc7c(N8CCC(=O)NC8=O)cccc76)CC4)C5)nn3)CC2)cc1Cl` (stereo partly drawn) [EAR230, N-((1r,4r)-4-(3-chloro-4-cyanophenoxy)cyclohexyl)-6-(3-((4-(4-(2,4-dioxotetrahydropyrimidin-1(2H)-yl)-1H-indazol-1-yl)piperidin-1-yl)methyl)-8-azabicyclo[3.2.1]octan-8-yl)pyridazine-3-carboxamide], the Dmax is at least 50%.

In the case of `CC(C)n1ccc2c(N3CCC(=O)NC3=O)cc(C(=O)N3CCN(CCC4CCN(c5ccc(NC(=O)N6C[C@H](C)N(c7ccc(C#N)c(Cl)c7)C[C@H]6C)cn5)CC4)CC3)cc21` [EAR 118, (2R,5S)-4-(3-Chloro-4-cyanophenyl)-N-(6-(4-(2-(4-(4-(2,4-dioxotetrahydropyrimidin-1(2H)-yl)-1-isopropyl-1H-indole-6-carbonyl)piperazin-1-yl)ethyl)piperidin-1-yl)pyridin-3-yl)-2,5-dimethylpiperazine-1-carboxamide], the “mean relative pDC50” value is given as 5.72 and the Dmax is at least 50%. Turning to `N#Cc1ccc(O[C@H]2CC[C@H](NC(=O)c3ccc(N4CCC(CN5CCC(n6ccc7c(N8CCC(=O)NC8=O)nccc76)CC5)CC4)nn3)CC2)cc1Cl` [EAR148, N-((1r,4r)-4-(3-Chloro-4-cyanophenoxy)cyclohexyl)-6-(4-((4-(4-(2,4-dioxotetrahydropyrimidin-1(2H)-yl)-1H-pyrrolo[3,2-c]pyridin-1-yl)piperidin-1-yl)methyl)piperidin-1-yl)pyridazine-3-carboxamide], the Dmax is at least 50%. As to `CC1(C)[C@H](NC(=O)c2ccc(N3CCC(CN4CCC(n5ncc6c(N7CCC(=O)NC7=O)ccnc65)CC4)CC3)cn2)C(C)(C)[C@H]1Oc1ccc(C#N)c2ncccc12` [EAR260, N-((1r,3r)-3-((8-Cyanoquinolin-5-yl)oxy)-2,2,4,4-tetramethylcyclobutyl)-5-(4-((4-(4-(2,4-dioxotetrahydropyrimidin-1(2H)-yl)-1H-pyrazolo[3,4-b]pyridin-1-yl)piperidin-1-yl)methyl)piperidin-1-yl)picolinamide hydrochloride], the Dmax is at least 50%. On to `N#Cc1ccc(O[C@H]2CC[C@H](NC(=O)c3ccc4c(c3)CCN(C(=O)CN3CCC(n5ccc6c(N7CCC(=O)NC7=O)cccc65)CC3)C4)CC2)cc1Cl` [AR5, N-((1r,4r)-4-(3-Chloro-4-cyanophenoxy)cyclohexyl)-2-(2-(4-(4-(2,4-dioxotetrahydropyrimidin-1(2H)-yl)-1H-indol-1-yl)piperidin-1-yl)acetyl)-1,2,3,4-tetrahydroisoquinoline-6-carboxamide], for which the Dmax was at least 50%. With `N#Cc1ccc(O[C@H]2CC[C@H](NC(=O)c3ccc4c(c3)CN(C(=O)CN3CCC(n5ccc6c(N7CCC(=O)NC7=O)cccc65)CC3)C4)CC2)cc1Cl` [AR6, N-((1r,4r)-4-(3-Chloro-4-cyanophenoxy)cyclohexyl)-2-(2-(4-(4-(2,4-dioxotetrahydropyrimidin-1(2H)-yl)-1H-indol-1-yl)piperidin-1-yl)acetyl)isoindoline-5-carboxamide], the Dmax is at least 50%. The same measure, in the same setting: as for `N#Cc1ccc(O[C@H]2CC[C@H](NC(=O)c3ccc(N4CCC(CN5CCC(n6ccc7c(N8CCC(=O)NC8=O)cncc76)CC5)CC4)nn3)CC2)cc1Cl` [EAR48, N-((1r,4r)-4-(3-Chloro-4-cyanophenoxy)cyclohexyl)-6-(4-((4-(4-(2,4-dioxotetrahydropyrimidin-1(2H)-yl)-1H-pyrrolo[2,3-c]pyridin-1-yl)piperidin-1-yl)methyl)piperidin-1-yl)pyridazine-3-carboxamide hydrochloride], the figure is at least 50%; as for `N#Cc1ccc(O[C@H]2CC[C@H](NC(=O)c3ccc(N4CC5CC(CN6CCC(n7ncc8c(N9CCC(=O)NC9=O)cccc87)CC6)(C5)C4)nn3)CC2)cc1Cl` [EAR219, N-((1r,4r)-4-(3-chloro-4-cyanophenoxy)cyclohexyl)-6-(1-((4-(4-(2,4-dioxotetrahydropyrimidin-1(2H)-yl)-1H-indazol-1-yl)piperidin-1-yl)methyl)-3-azabicyclo[3.1.1]heptan-3-yl)pyridazine-3-carboxamide], at least 50%.
